Laboratory results published in patent US11857535B2, “Methods of treating mutant lymphomas” (Kymera Therapeutics, Inc., priority 2020, dated 2024).
Values after ≈ are worked out from the molar mass of the structure shown. Where two headings read alike, the source gives them in different places.

Assays:
[1] = Solubility in oral dosing vehicle; type: physicochemical; conditions: 10% HP-β-CD vehicle (oral dosing vehicle), aqueous with cosolvent or surfactant or cyclodextrin; 10% HP-β-CD in water at pH 3.5 (w/v), 25 C; read-out: measured solubility
Description: Formulation: 10% HP-β-CD in water at pH 3.5 (w/v) in water at pH 3.5 (w/v) • Prepare the 10% HP-β-CD vehicle on a (w/v) basis • Add compound with stirring. • Heat to ˜50 C for 10 minutes. Can also sonicate. • Adjust pH to 3.5. • Heat for another 10-20 minutes at ˜50 C. • Check and adjust the pH as needed. • Expect solution as the measured solubility was 10 mg/mL at 25 C.

[2] = Human dose prediction by matching AUCs with intermittent dosing regimens in mice models; conditions: mouse, read-out: Weekly AUC
Description: Human dose predictions from intermittent dosing supports dose targets for both IV and PO dosing.
IV formulation up to 300 mg/dose is feasible (exposure for efficacy is 100-300 mg/dose). Dosing to ≥400 mg likely possible (>80% POS based on initial formulation assessment). Projected PO upper dose of 900 mg/day is feasible. May be divided into BID dosing to achieve exposure. High pill burden or unusual formulation strategy (e.g., mix and drink) may be needed. PO versus IV dosing in compared in Table 14.

[3] = system: OCI-LY10 tumor xenographs; test: OCI-Ly10 xenograph tumor study (tumor volume, TGI, responses); type: in vivo, mouse; parameters: key to TGI (D14): TGI % = (1−T/C)×100; conditions: for TGI (28D): TGI=(1-T/C)100
Description: Cell Culture: The OCI-LY10 tumor cells were maintained as suspension in RPMI1640 medium supplemented with 10% fetal bovine serum, 100 U/mL penicillin and 100 μg/mL streptomycin at 37° C. in an atmosphere of 5% CO2 in air. The tumor cells were routinely subcultured twice weekly by trypsin-EDTA treatment. The cells growing in an exponential growth phase were harvested and counted for tumor inoculation.
Animals: C.B. 17 SCID, female, 6-8 weeks, weighing approximately 16-18 g were used. Animals were housed and maintained according to IACUC protocols.
Tumor Inoculation: Each mouse was inoculated subcutaneously at the right flank with OCI-LY10 tumor cells (10×10^6) in 0.2 mL of PBS with matrigel for tumor development. The treatments were started when the tumor sizes reached approximately 150-450 mm^3 for the studies.
Assignment to Groups: Before commencement of treatment, all animals were weighed and the tumor volumes were measured. Since the tumor volume can affect the compound PK/PD, mice are assigned into groups using an Excel-based randomization procedure performing stratified randomization based upon their tumor volumes.
Observation: After tumor inoculation, the animals were checked daily for morbidity and mortality. During routine monitoring, the animals were checked for any effects of tumor growth and treatments on behavior such as mobility, food and water consumption, body weight gain/loss, eye/hair matting and any other abnormalities. Mortality and observed clinical signs were recorded for individual animals in detail.
Data Collection: Tumor volumes were measured in two dimensions using a caliper, and the volumes were expressed in mm^3 using the formula: ″V=(L×W×W)/2, where V is tumor volume, L is tumor length (the longest tumor dimension) and W is tumor width (the longest tumor dimension perpendicular to L).
TGI (tumor growth inhibition)=(1−T/C)100; PR (partial response)≥50% tumor shrinkage; CR (complete response)>95% tumor shrinkage from starting volume

[4] = 10 mg/kg PO, D1-7 (line noted BENCHMARK)
[5] = 10 mg/kg PO, D1-7 (second line of this schedule)

## CC(C)(O)c1cc2nc([C@H]3CC[C@H](CN4CC5(CC(CCNc6cccc7c6C(=O)N(C6CCC(=O)NC6=O)C7=O)C5)C4)CC3)sc2cc1NC(=O)c1cccc(C(F)(F)F)n1 (stereo partly drawn) [Compound A, N-(2-((1r,4r)-4-((6-(2-((2-(2,6-dioxopiperidin-3-yl)-1,3-dioxoisoindolin-4-yl)amino)ethyl)-2-azaspiro[3.3]heptan-2-yl)methyl)cyclohexyl)-5-(2-hydroxypropan-2-yl)benzo[d]thiazol-6-yl)-6-(trifluoromethyl)picolinamide]
[1]
  solubility: 10000 µg/mL (≈ 11.5 mM)
[2]; 3 mg/kg, OCI-Ly10 model, IV 3 mpk BIW
  AUC: 12 µM·h
[2]; 10 mg/kg, OCI-Ly10 model, PO 10 mpk BIW
  AUC: 7 µM·h
[2]; 12 mg/kg, OCI-Ly10 model, IV 12 mpk QW
  AUC at 1 week: 24 µM·h
[2]; 30 mg/kg, DHL2 model, PO 30 mpk BIW
  AUC: 18 µM·h
[2]; 30 mg/kg, OCI-Ly10 model, PO 30 mpk QW
  AUC at 1 week: 18 µM·h
[2]; DHL2 model, IV ~10 (est.) mpk BIW, estimated
  AUC: ~36 µM·h
[3]; 3 mg/kg IV, D1, 2, 8, 9
  PR (partial response), animals: 3
  TGI (D14): 89
[3]; 3 mg/kg IV, D1, 4, 8, 11
  PR (partial response), animals: 3
  TGI (D14): 89
[3]; 5 mg/kg PO, D1-4, 15-18
  PD (progressive disease), animals: 1
  TGI (D14): 62
[3]; 5 mg/kg PO, D1-4, 15-18, note continues 'D14'
  Notes: All tumors growing after
[3]; 5 mg/kg PO, D1-7
  PR (partial response), animals: 2
  TGI (D14): 75
[3]; 5 mg/kg PO, D1-7, note continues 'D14'
  Notes: All tumors growing after
[3]; 6 mg/kg IV, D1, 2, 8, 9
  PR (partial response), animals: 5
  TGI (D14): 94
[3]; 10 mg/kg PO, D1, 2, 8, 9
  PR (partial response), animals: 2
  TGI (D14): 88
[3]; 10 mg/kg PO, D1, 2, 8, 9, note continues 'and continue trending down'
  Notes: All show tumor regression
[3]; 10 mg/kg PO, D1, 4, 8, 11
  PR (partial response), animals: 5
  TGI (D14): 85
[3]; 10 mg/kg PO, D1, 4, 8, 11, D18
  Notes: PR on D18, animals: 6
  Notes: near PR on D18, animals: 1
[3]; 10 mg/kg PO, D1-3
  PD (progressive disease), animals: 1
  PR (partial response), animals: 5
  TGI (D14): 82
[3]; 10 mg/kg PO, D1-3, note continues 'regression'
  Notes: All SD show some
[3]; 10 mg/kg PO, D1-4, 15-18
  PR (partial response), animals: 7
  TGI (D14): 87
[3]; 10 mg/kg PO, D1-4, 15-18, note continues 'significantly from D10'
  Notes: All tumors shrank
[3]; [4]
  CR (complete response), animals: 1
  PR (partial response), animals: 6
  TGI (D14): 96
[3]; [5]
  CR (complete response), animals: 1
  PR (partial response), animals: 6
  TGI (D14): 97
[3]; 12 mg/kg IV, D1, 8
  PR (partial response), animals: 5
  TGI (D14): 94
[3]; 12 mg/kg IV, D1, 8,, note continues 'and continue trending down'
  Notes: All show tumor regression
[3]; 15 mg/kg PO, D1, 2, 8, 9
  PR (partial response), animals: 7
  TGI (D14): 91
[3]; 15 mg/kg PO, D1, 2, 8, 9, note continues 'significantly from D10'
  Notes: Very Active: Tumors shrank
[3]; 15 mg/kg PO, D1, 8, 15
  Notes: tumors growing slightly: 2/5 are growing slightly
  Notes: tumors with some regression: 3/5 show some regression;
  TGI (D14): 83
[3]; 20 mg/kg PO, D1-3
  CR (complete response), animals: 1
  PR (partial response), animals: 6
  TGI (D14): 96
[3]; 30 mg/kg PO, D1,2
  CR (complete response), animals: 4
  PR (partial response), animals: 3
  TGI (D14): 99
[3]; 30 mg/kg PO, D1,2, D18
  Notes: CR by D18, animals: 6 CR by D18
[3]; 30 mg/kg PO, D1, 4, 8
  CR (complete response), animals: 3
  PR (partial response), animals: 4
  TGI (D14): 97
[3]; 30 mg/kg PO, D1, 4, 8, D18
  Notes: CR at D18, animals: 5
  Notes: PR at D18, animals: 2
[3]; 30 mg/kg PO, D1, 4, 8, at D18
  Notes: Tumors continue to regress
[3]; 30 mg/kg PO, D1, 8, 15
  CR (complete response), animals: 2
  PR (partial response), animals: 5
  TGI (D14): 96
[3]; 30 mg/kg PO, D1-3
  CR (complete response), animals: 4
  PR (partial response), animals: 3
  TGI (D14): 99
[3]; 30 mg/kg PO, D1-3, D18
  Notes: CR by D18, animals: 7 CR by D18
[3]; 45 mg/kg PO, D1,2
  CR (complete response), animals: 4
  PR (partial response), animals: 3
  TGI (D14): 99
[3]; 45 mg/kg PO, D1,2, D18
  Notes: CR by D18, animals: 7 CR by D18
[3]; 60 mg/kg PO, D1
  CR (complete response), animals: 2
  PR (partial response), animals: 5
  TGI (D14): 97
[3]; 3 mpk x 21 d
  tumor response in OCI-Ly10 xenographs: regressions
[3]; 3 mpk, PR ≥50% tumor shrinkage
  PR (partial response), animals: 4
[3]; 3 mpk
  TGI (28D): 91%
[3]; 10 mpk, CR >95% tumor shrinkage from starting volume
  CR (complete response), animals: 5CR
[3]; 10 mpk
  TGI (28D): 99.9%
[3]; 30 mpk, CR >95% tumor shrinkage from starting volume
  CR (complete response), animals: 5CR
[3]; 30 mpk
  TGI (28D): 99.9%
[3]; OCI-Ly10 tumor xenographs, FIG. 2
  regressions compared with Compound B: more potent regressions than Compound B
[3]; QW and BIW schedules, FIG. 3
  IV versus PO activity: equally active
[3]; comparison of both routes of administration
  Efficacy, IV versus PO: Efficacy is equivalent between both ROA
[3]; dosed BIW every 3 weeks, FIG. 3
  tumor response on intermittent schedule: induces regression
[3]; higher doses (>10 mpk)
  tumor response in OCI-Ly10 xenographs: more rapid and complete regressions
[3]; mg/kg: 5 PO D1-4,15-18, 5 PO D1-7, 15 PO D1,8,15
  Activity (class of schedule): Insufficient
[3]; mg/kg: 10 PO D1,2,8,9, 3 IV D1,2,8,9, 3 IV D1,4,8,11, 10 PO D1-3, 10 PO D1,4,8,11, 10 PO D1-4,15-18, 15 PO D1,2,8,9, 6 IV D1,2,8,9, 12 IV D1,8
  Activity (class of schedule): Minimal
[3]; mg/kg: 30 PO D1,8,15, 10 PO D1-7, 20 PO D1-3, 60 PO D1, 30 PO D1,4,8, 30 PO D1,2, 30 PO D1-3, 45 PO D1,2
  Activity (class of schedule): Optimal
